Laboratory results taken from paper PMC8661032, “Broad-Spectrum Antibacterial Peptide Kills Extracellular and Intracellular Bacteria Without Affecting Epithelialization” (Frontiers in Microbiology, 2021).
≈ marks a conversion by molar mass, not a printed value.

Assays:
Experiment in all cases: microbe, parasite or virus in culture
S. aureus = details: for MIC: CAMHB, 24 h, three independent experiments
Description: (§1) Briefly, bacterial colonies from blood agar plates were suspended and grown in Cation-Adjusted Mueller-Hinton Broth (CAMHB, […] Ca^2+, […] Mg^2+). The bacterial suspension was adjusted to 0.5 McFarland standard (∼1 × 10^8 colony-forming units (CFU)/ml) and serial diluted 1:200 in CAMHB (∼5 × 10^5 CFU/mL). […] The suspension was plated out on blood agar plates to confirm the CFU/ml. Both the microtiter plates and the blood agar plates were incubated at 37°C for 24 h.

E. coli = details: for MIC: Escherichia coli
Description: as §1

K. pneumoniae = details: for MIC: Klebsiella pneumoniae
Description: as §1

[1] = Staphylococcus aureus, ATCC29213, 24 h, Reference strain ATCC 29213
[2] = Staphylococcus aureus, MRSA, Clinical isolate SO-SAU19-1 (MRSA)
[3] = SO-ECO19-1 (ESBL-CARB-A(CTX-M-24)/D(OXA-48))

| SMILES | Combination effect with 0.5× MIC betatide (S. aureus; ATCC 29213) | Combination effect with 0.5× MIC betatide (S. aureus; SO-SAU19-1 (MRSA)) | MIC (S. aureus; [1]) [µg/mL] | MIC (S. aureus; [2]) [µg/mL] | MIC (E. coli; 24 h) [µg/mL] | MIC (E. coli; MG1655, 24 h) [µg/mL] | Combination effect with 0.5× MIC betatide (E. coli; MG1655) | Combination effect with 0.5× MIC betatide (E. coli; [3]) | further results |
| --- | --- | --- | --- | --- | --- | --- | --- | --- | --- |
| CO[C@@]1(NC(=O)Cc2cccs2)C(=O)N2C(C(=O)O)=C(COC(N)=O)CS[C@@H]21 [Cefoxitin, cefoxitin] | None | Additive 2× | 4 (≈ 9.36 µM) | 32 (≈ 74.9 µM) |  |  |  |  |  |
| CO/N=C(\C(=O)N[C@@H]1C(=O)N2C(C(=O)O)=C(CSc3nc(=O)c(=O)[nH]n3C)CS[C@H]12)c1csc(N)n1 [Ceftriaxone, ceftriaxone] |  |  |  |  | 1020 (≈ 1850 µM) | 0.06 (≈ 0.108 µM) | None | Additive 4× |  |
| CCC[C@@H]1C[C@@H](C(=O)N[C@@H]([C@H]2O[C@H](SC)[C@H](O)[C@@H](O)[C@H]2O)[C@H](C)Cl)N(C)C1 [Clindamycin, clindamycin] | Additive 2× | Additive 2× | 0.25 (≈ 0.588 µM) | 2050 (≈ 4820 µM) |  |  |  |  |  |
| C[C@@H](O)[C@H]1C(=O)N2C(C(=O)O)=C(S[C@@H]3CN[C@H](C(=O)Nc4cccc(C(=O)O)c4)C3)[C@H](C)[C@H]12 [Ertapenem, ertapenem] |  |  |  |  | 64 (≈ 135 µM) | 0.06 (≈ 0.126 µM) | None | Additive 2× | Combination effect with 0.5× MIC betatide (K. pneumoniae; ATCC 13883): Additive 4×; MIC (K. pneumoniae; 24 h): 32 µg/mL (≈ 67.3 µM); MIC (K. pneumoniae; ATCC13883, 24 h): 0.03 µg/mL (≈ 0.0631 µM); Combination effect with 0.5× MIC betatide (K. pneumoniae; SO-KPN19-1 (ESBL-CARBA-D)): Additive 2× |
| CC(=O)O[C@H]1C[C@@]2(C)[C@@H](C[C@@H](O)[C@H]3[C@@]4(C)CC[C@@H](O)[C@@H](C)[C@@H]4CC[C@@]32C)/C1=C(\CCC=C(C)C)C(=O)O [Fusidic acid, fusidic acid] | Additive, 2× | Additive 8× | 0.25 (≈ 0.484 µM) | 0.25 (≈ 0.484 µM) |  |  |  |  | Combination effect with 0.5× MIC betatide (S. aureus; SO-SAU 19-2 (FR-MRSA)): Additive 2×; Combination effect with 0.5× MIC betatide (S. aureus; SO-SAU 19-3 (FR-MRSA)): Additive 4×; Combination effect with 0.5× MIC betatide (S. aureus; SO-SAU 19-4 (FR-MRSA)): Additive 2×; MIC (S. aureus; SO-SAU 19-4 (FR-MRSA)): 8 µg/mL (≈ 15.5 µM); MIC (S. aureus; Staphylococcus aureus, MRSA, SO-SAU 19-2 (FR-MRSA)): 8 µg/mL (≈ 15.5 µM); reduction in MIC of fusidic acid when combined with 0.5× MIC betatide (S. aureus; fusidic acid-sensitive MRSA strain): 8 × |
